Publication PMC6137088, “The Role of Outer Membrane Proteins and Lipopolysaccharides for the Sensitivity of Escherichia coli to Antimicrobial Peptides” (Frontiers in Microbiology, 2018)
Where a name gives a salt, the structure may show the parent alone. Where a SMILES comes first, the peptide text is derived from it. Bridges are numbered along the chain shown (N, C = ends). Where no end group is shown, it is not given here. [ ]: non-standard residue; d: D form. The star is where a group is joined. X1 = CC[C@H](C)CCCCC(=O)*; Dab = NCC[C@H](N)C(=O)O

Key:
[1] = system: E. coli BW25113 gmhA::kan; assay type: cell-based, Escherichia coli; details: for MIC: Table 3, BW25113 gmhA::kan, Mueller-Hinton-II, 16–20 h, duplicates (*) or triplicates
Text: (§1) The E. coli strains 470, F632, F653 and F2513 were kindly provided by Prof. H. Brade and Prof. S. Muller-Loennies, Research Center Borstel, Leipniz-Center for Medicine and Biosciences, Germany. E. coli BW25113 (CGSC#:7636), a derivative of F^−, λ^− E. coli K12 strain BD792 is the wild-type strain which was used in the generation of the KEIO collection and ordered from the Coli Genetic Stock Centre (CGSC, Yale University). E. coli JW3596, E. coli JW3024, E. coli JW3595, E. coli JW3606, E. coli JW0212, E. coli JW1667, E. coli JW0554, E. coli JW3605 and E. coli JW3600 are isogenic mutants of waaC, waaE, waaF, waaG, gmhA (lpcA), lpp, ompT, waaP, or waaY derived from the parental strain E. coli BW25113 and were ordered from the KEIO collection (Baba et al., [2006]). E. coli ATCC25922 is a clinical isolate, serotype O6, often used as control strain in antimicrobial susceptibility testing was ordered from the ATCC strain collection. All strains were grown in Mueller-Hinton-II medium and incubation took place aerobically at 37°C for 18–20 h.
(§2) The minimum inhibitory concentrations (MICs) of the AMPs were measured in 96-well microtiter plates according the Clinical and Laboratory Standards Institute [CLSI, formerly National Committee for Clinical Laboratory Standards (NCCLS)] (Wikler et al., [2009]). Liquid Mueller-Hinton-II medium containing increasing concentrations of AMPs is inoculated with a defined number of cells (~10^5 CFUs/ml) in 96-well microtiter plates (polypropylene). Each microtiter plate includes a positive growth control and a negative control (sterile control). After incubation, the minimal inhibitory concentration (MIC) is determined by the lowest concentration showing no visible growth. All plates were incubated for 16–20 h.

E. coli BW25113 lpp::kan = assay type: cell-based, Escherichia coli; details: for MIC: Table 3, BW25113 lpp::kan, Mueller-Hinton-II, 16–20 h, duplicates (*) or triplicates
Text: as §1, §2

[2] = system: E. coli BW25113 waaC::kan; assay type: cell-based, Escherichia coli; details: for MIC: Table 3, BW25113 waaC::kan, Mueller-Hinton-II, 16–20 h, duplicates (*) or triplicates
Text: as §1, §2

[3] = system: E. coli BW25113 waaE::kan; assay type: cell-based, Escherichia coli; details: for MIC: Table 3, BW25113 waaE::kan, Mueller-Hinton-II, 16–20 h, duplicates (*) or triplicates
Text: as §1, §2

[4] = system: E. coli BW25113 waaF::kan; assay type: cell-based, Escherichia coli; details: for MIC: Table 3, BW25113 waaF::kan, Mueller-Hinton-II, 16–20 h, duplicates (*) or triplicates
Text: as §1, §2

[5] = system: E. coli BW25113 waaG::kan; assay type: cell-based, Escherichia coli; details: for MIC: Table 3, BW25113 waaG::kan, Mueller-Hinton-II, 16–20 h, duplicates (*) or triplicates
Text: as §1, §2

[6] = system: E. coli BW25113 waaP::kan; assay type: cell-based, Escherichia coli; details: for MIC: Table 3, BW25113 waaP::kan, Mueller-Hinton-II, 16–20 h, duplicates (*) or triplicates
Text: as §1, §2

[7] = system: E. coli BW25113 waaY::kan; assay type: cell-based, Escherichia coli; details: Table 3, Mueller-Hinton-II, 16–20 h, duplicates (*) or triplicates
Text: as §1, §2

E. coli BW25113 = assay type: cell-based, Escherichia coli; details: for MIC: Table 3, E. coli BW25113 wild type, Mueller-Hinton-II, ~10^5 CFUs/ml, 16–20 h, duplicates (*) or triplicates
Text: as §1, §2

E. coli F2513 (R4) = assay type: cell-based, Escherichia coli; details: Table 4; E. coli F2513 (R4 prototype, rough LPS); triplicates
Text: as §1, §2

E. coli F470 (R1) = assay type: cell-based, Escherichia coli; details: Table 4; E. coli F470 (R1 prototype, rough LPS); triplicates
Text: as §1, §2

E. coli F632 (R2) = assay type: cell-based, Escherichia coli; details: Table 4; E. coli F632 (R2 prototype, rough LPS); triplicates
Text: as §1, §2

E. coli F653 (R3) = assay type: cell-based, Escherichia coli; details: Table 4; E. coli F653 (R3 prototype, rough LPS); triplicates
Text: as §1, §2

[8] = system: E. coli BW25113 ompT::kan; assay type: cell-based, Escherichia coli; details: for MIC: Table 3, BW25113 ompT::kan, Mueller-Hinton-II, 16–20 h, duplicates (*) or triplicates
Text: as §1, §2

E. coli ATCC25922 ΔwaaC = assay type: cell-based, Escherichia coli; details: Table 6, triplicates
Text: as §1, §2

E. coli ATCC25922 ΔwaaE = assay type: cell-based, Escherichia coli; details: Table 6, triplicates
Text: as §1, §2

E. coli ATCC25922 ΔwaaF = assay type: cell-based, Escherichia coli; details: Table 6, triplicates
Text: as §1, §2

E. coli ATCC25922 ΔwaaG = assay type: cell-based, Escherichia coli; details: Table 6, triplicates
Text: as §1, §2

E. coli ATCC25922 = assay type: cell-based, Escherichia coli; details: triplicates; for Antimicrobial activity: MIC: Table 6, E. coli ATCC25922 wild-type
Text: as §1, §2

S. typhimurium LT2 = test: MIC testing (CLSI broth microdilution); assay type: cell-based; details: Table 6, triplicates
Protocol: as §2

Y. ruckeri 392/2003 = test: MIC testing (CLSI broth microdilution); assay type: cell-based; details: Table 6, triplicates
Protocol: as §2

[9] = system: E. coli ATCC25922 LPS mutants (ΔwaaC, ΔwaaE, ΔwaaF, ΔwaaG); assay type: cell-based, Escherichia coli; details: E. coli ATCC25922 background (text prints ATCC29522); summary of Table 6
Text: as §1, with “[…],” for “E. coli JW3605 and E. coli JW3600 are isogenic mutants of waaC, waaE, waaF, waaG,”, “or waaY derived from the parental strain E. coli BW25113 and were ordered from the” left out
as §2

Compound	MIC [2] [µg/mL]	MIC [3] [µg/mL]	MIC [4] [µg/mL]	MIC [5] [µg/mL]	MIC [6] [µg/mL]	MIC [7] [µg/mL]	MIC (E. coli BW25113) [µg/mL]	Antimicrobial activity: MIC (E. coli ATCC25922 ΔwaaC) [µg/mL]	Antimicrobial activity: MIC (E. coli ATCC25922 ΔwaaE) [µg/mL]	Antimicrobial activity: MIC (E. coli ATCC25922 ΔwaaF) [µg/mL]	Antimicrobial activity: MIC (E. coli ATCC25922 ΔwaaG) [µg/mL]	Antimicrobial activity: MIC (E. coli ATCC25922) [µg/mL]	Antimicrobial activity: MIC (S. typhimurium LT2) [µg/mL]	Antimicrobial activity: MIC (Y. ruckeri 392/2003) [µg/mL]	MIC / antimicrobial activity in LPS mutants harboring a deletion in waaC, waaE, waaF, or waaG [9] [µg/mL]	other results
GLRKKFRKTRKRIQKLGRKIGKTGRKVWKAWREYGQIPYPCRI [Cap11]	8	8	8	8	8 to 16	8 to 16	8	–	–	–	–	–	–	–	–	MIC [1]: 8 ^* μg/ml; MIC (E. coli BW25113 lpp::kan): 8 ^* μg/ml; Antimicrobial activity (MIC) (E. coli BW25113; Table 4, E. coli BW25113 (K12 core type), triplicates): 8 µg/mL; Antimicrobial activity (MIC) (E. coli F2513 (R4)): 4 to 8 µg/mL; Antimicrobial activity (MIC) (E. coli F470 (R1)): 16 µg/mL; Antimicrobial activity (MIC) (E. coli F632 (R2)): 8 µg/mL; Antimicrobial activity (MIC) (E. coli F653 (R3)): 16 µg/mL
CC[C@H](C)CCCCC(=O)N[C@@H](CCN)C(=O)N[C@H](C(=O)N[C@@H](CCN)C(=O)N[C@H]1CCNC(=O)[C@H]([C@@H](C)O)NC(=O)[C@H](CCN)NC(=O)[C@H](CCN)NC(=O)[C@H](CC(C)C)NC(=O)[C@@H](CC(C)C)NC(=O)[C@H](CCN)NC1=O)[C@@H](C)O [Colistin, colistin sulfate] (X1-[Dab]T[Dab][Dab][Dab][dL]L[Dab][Dab]T; lactam 4-C (inferred); N-terminus assumed)	0.063 to 0.125	0.063 to 0.125	0.063	0.063 to 0.125	0.125 to 0.25	0.125 to 0.25	0.125 to 0.25	–	–	–	–	–	–	–	–	MIC [1]: 0.063 µg/mL; increase in antimicrobial activity against BW25113 gmhA::kan compared to parental BW25113 ([1]; from MIC values of Table 3): up to 2 fold; MIC (E. coli BW25113 lpp::kan): 0.063 to 0.125 µg/mL; increase in antimicrobial susceptibility of the lpp mutant compared to the wild-type (factor) (E. coli BW25113 lpp::kan; from MIC values of Table 3): 2; MIC [8]: 0.125 to 0.25 µg/mL; increase of antimicrobial activity in the ompT mutant compared to the parental strain BW25113 (factor) ([8]; from MIC values of Table 3): unchanged; increase in antimicrobial activity against BW25113 waaC::kan compared to parental BW25113 ([2]; from MIC values of Table 3): up to 2 fold; increase in antimicrobial activity against BW25113 waaE::kan compared to parental BW25113 ([3]; from MIC values of Table 3): up to 2 fold; increase in antimicrobial activity against BW25113 waaF::kan compared to parental BW25113 ([4]; from MIC values of Table 3): up to 2 fold; increase in antimicrobial activity against BW25113 waaG::kan compared to parental BW25113 ([5]; from MIC values of Table 3): up to 2 fold; increase in antimicrobial activity in a waaP mutant background compared to the wild-type strain (times) ([6]; from MIC values of Table 3): not changed
GLRKRLRKFRNKIKEKKKKIGQKIQGLLPKLAPRTDY [L17K]	–	–	–	–	–	–	–	8	8	8	8	≥64	16	≥64	4 to 8	–
GLRKRLRKFRNKIKEKLKKIGQKIQGPLPKLAPRTDY [L27P]	–	–	–	–	–	–	–	8	4	4	4	≥64	8	32	4 to 8	–
SWLSKTAKKLENSAKKRISEGIAIAIQGGPR [Cecropin P1]	8	8	4	16	16 to 32	32	16 to 32	–	–	–	–	–	–	–	–	Antimicrobial activity (MIC) (E. coli ATCC25922; Table 4, E. coli ATCC25922 (smooth LPS)): 32 µg/mL; MIC [8]: 16 ^* μg/ml; Antimicrobial activity (MIC) (E. coli F2513 (R4)): 16 to 32 µg/mL; Antimicrobial activity (MIC) (E. coli F470 (R1)): 32 µg/mL; Antimicrobial activity (MIC) (E. coli F632 (R2)): 32 µg/mL; Antimicrobial activity (MIC) (E. coli F653 (R3)): 32 µg/mL
GLRKRLRKFRNKIKEKLKKEGQKIQGLLPKLAPRTDY [I20E]	–	–	–	–	–	–	–	4	4	4	8	≥64	8	32	4 to 8	–
GLRKRLRKFRNKIKEKLKKIGQKGQGLLPKLAPRTDY [I24G]	–	–	–	–	–	–	–	8	8	8	8	≥64	8 to 16	32	4 to 8	–
